Source: ChEMBL document CHEMBL1149518, “High affinity inhibitors of the dopamine transporter (DAT): novel biotinylated ligands for conjugation to quantum dots” (Bioorg Med Chem Lett, 2006)

Biological target: Sodium-dependent dopamine transporter (Homo sapiens, UniProt Q01959)
Assay: Inhibition of [3H]dopamine uptake at dopamine transporter

Sodium-dependent dopamine transporter, sequence (Q01959 whole entry): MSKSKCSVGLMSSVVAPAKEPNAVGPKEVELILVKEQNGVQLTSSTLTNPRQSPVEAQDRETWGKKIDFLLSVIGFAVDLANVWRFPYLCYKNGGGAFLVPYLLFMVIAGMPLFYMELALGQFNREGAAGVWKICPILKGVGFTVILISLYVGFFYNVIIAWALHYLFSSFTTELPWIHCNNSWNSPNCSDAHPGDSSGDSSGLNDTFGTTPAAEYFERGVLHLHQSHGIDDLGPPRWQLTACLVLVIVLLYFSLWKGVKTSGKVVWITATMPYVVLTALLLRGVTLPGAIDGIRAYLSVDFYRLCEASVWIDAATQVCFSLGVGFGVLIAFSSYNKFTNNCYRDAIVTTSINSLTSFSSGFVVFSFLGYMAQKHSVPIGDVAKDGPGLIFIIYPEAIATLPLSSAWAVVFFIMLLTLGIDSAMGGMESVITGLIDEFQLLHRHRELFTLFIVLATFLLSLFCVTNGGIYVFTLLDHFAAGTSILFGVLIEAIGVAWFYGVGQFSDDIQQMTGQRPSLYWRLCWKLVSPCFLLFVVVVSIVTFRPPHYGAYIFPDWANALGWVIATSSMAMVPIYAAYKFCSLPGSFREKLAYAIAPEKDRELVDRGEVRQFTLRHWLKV

SMILES	IC50
O=C(CCCCCCCCCCS)Nc1ccc(CCCN2CCN(CCOC(c3ccc(F)cc3)c3ccc(F)cc3)CC2)cc1	18 nM
O=C(CCCCCCCCCCS)Nc1ccc(CCCN2CCN(CCOC(c3ccccc3)c3ccccc3)CC2)cc1	10 nM
